Earlier results on 1 molecule are cited in patent publication US20040110828A1, “Tetrahydrocannabinol compositions and methods of manufacture and use thereof” (priority 2002, published 2004).

A value given as a limit tells only on which side of the number the result lay.

Consider `CCCCCc1cc(O)c2c(c1)OC(C)(C)[C@@H]1CCC(C)=C[C@@H]21` [Delta 9-THC, Delta 9-tetrahydrocannabinol], for which, under “IV administration, slow phase after the initial distribution (first 30 minutes)”, the “half-life of blood level” value was not below 19 h. The “compound and its metabolites remaining in the body” value (one week after an IV injection of a single dose) is recorded as 25-30%.
